{"source": "patent US8207144B2", "about": "“Sodium salt of disaccharide compound, production method and use of same” (Eisai R & D Management Co., Ltd., priority 2006, dated 2012)", "experiment": "Storage stability test (formation of impurities A, B and C by HPLC)", "assay_type": "physicochemical", "settings": "HPLC area percent", "experimental": "Consequently, formation rates (converted to monthly rates) were calculated for each of the three types of decomposition products (impurities A, B and C) using the area percent.", "key": {"[1]": {"settings": "storage at 25° C. in screw-cap glass bottle, day 0"}, "[2]": {"settings": "storage at 25° C., day 1.0, listed as 3.67 Na Salt"}, "[3]": {"settings": "storage at 25° C., day 1.9, listed as 3.67 Na Salt"}, "[4]": {"settings": "storage at 25° C., day 4.5, listed as 3.67 Na Salt"}, "[5]": {"settings": "storage at 25° C., day 1.0, listed as 3.93 Na Salt"}, "[6]": {"settings": "storage at 25° C., day 1.9, listed as 3.93 Na Salt"}, "[7]": {"settings": "storage at 25° C., day 4.5, listed as 3.93 Na Salt"}}, "data": [{"smiles": "CCCCCC/C=C\\CCCCCCCCCC(=O)N[C@H]1[C@H](OC[C@H]2O[C@H](OP(=O)([O-])[O-])[C@H](NC(=O)CC(=O)CCCCCCCCCCC)[C@@H](OCCCCCCCCCC)[C@@H]2O)O[C@H](COC)[C@@H](OP(=O)([O-])[O-])[C@@H]1OCC[C@@H](CCCCCCC)OC.[Na+].[Na+].[Na+].[Na+]", "note": "[Example 3]", "values": [{"measurement": "Impurity A", "setting": "[1]", "value": 0.00, "unit": "%"}, {"measurement": "Impurity C", "setting": "storage at 25° C., day 0", "value": 0.00, "unit": "%"}, {"measurement": "Impurity B", "setting": "storage at 25° C., day 0, listed as 3.67 Na Salt", "value": 0.08, "unit": "%"}, {"measurement": "Impurity C", "setting": "storage at 25° C., day 1.0", "value": 0.00, "unit": "%"}, {"measurement": "Impurity A", "setting": "[2]", "value": 0.00, "unit": "%"}, {"measurement": "Impurity B", "setting": "[2]", "value": 0.12, "unit": "%"}, {"measurement": "Impurity C", "setting": "storage at 25° C., day 1.9", "value": 0.00, "unit": "%"}, {"measurement": "Impurity A", "setting": "[3]", "value": 0.01, "unit": "%"}, {"measurement": "Impurity B", "setting": "[3]", "value": 0.09, "unit": "%"}, {"measurement": "Impurity C", "setting": "storage at 25° C., day 4.5", "value": 0.01, "unit": "%"}, {"measurement": "Impurity A", "setting": "[4]", "value": 0.01, "unit": "%"}, {"measurement": "Impurity B", "setting": "[4]", "value": 0.13, "unit": "%"}, {"measurement": "Impurity C", "setting": "storage at 25° C., day 8.8", "value": 0.01, "unit": "%"}, {"measurement": "Impurity C", "setting": "storage at 25° C., day 29.5, listed as 3.67 Na Salt", "value": 0.07, "unit": "%"}]}, {"smiles": "CCCCCC/C=C\\CCCCCCCCCC(=O)N[C@H]1[C@H](OC[C@H]2O[C@H](OP(=O)([O-])[O-])[C@H](NC(=O)CC(=O)CCCCCCCCCCC)[C@@H](OCCCCCCCCCC)[C@@H]2O)O[C@H](COC)[C@@H](OP(=O)([O-])[O-])[C@@H]1OCC[C@@H](CCCCCCC)OC.[Na+].[Na+].[Na+].[Na+]", "note": "[Example 4]", "values": [{"measurement": "Impurity A", "setting": "[1]", "value": 0.00, "unit": "%"}, {"measurement": "Impurity C", "setting": "storage at 25° C., day 0", "value": 0.00, "unit": "%"}, {"measurement": "Impurity B", "setting": "storage at 25° C., day 0, listed as 3.93 Na Salt", "value": 0.14, "unit": "%"}, {"measurement": "Impurity C", "setting": "storage at 25° C., day 1.0", "value": 0.00, "unit": "%"}, {"measurement": "Impurity A", "setting": "[5]", "value": 0.03, "unit": "%"}, {"measurement": "Impurity B", "setting": "[5]", "value": 0.26, "unit": "%"}, {"measurement": "Impurity C", "setting": "storage at 25° C., day 1.9", "value": 0.00, "unit": "%"}, {"measurement": "Impurity A", "setting": "[6]", "value": 0.04, "unit": "%"}, {"measurement": "Impurity B", "setting": "[6]", "value": 0.29, "unit": "%"}, {"measurement": "Impurity C", "setting": "storage at 25° C., day 4.5", "value": 0.01, "unit": "%"}, {"measurement": "Impurity A", "setting": "[7]", "value": 0.06, "unit": "%"}, {"measurement": "Impurity B", "setting": "[7]", "value": 0.38, "unit": "%"}, {"measurement": "Impurity C", "setting": "storage at 25° C., day 8.8", "value": 0.01, "unit": "%"}, {"measurement": "Impurity C", "setting": "storage at 25° C., day 29.5, listed as 3.93 Na Salt", "value": 0.06, "unit": "%"}]}, {"smiles": "CCCCCC/C=C\\CCCCCCCCCC(=O)NC1C(OCC2OC(OP(=O)([O-])[O-])C(NC(=O)CC(=O)CCCCCCCCCCC)C(OCCCCCCCCCC)C2O)OC(COC)C(OP(=O)([O-])[O-])C1OCCC(CCCCCCC)OC.[Na+].[Na+].[Na+].[Na+]", "note": "(stereo not drawn) [Comparative Example 1, reference compound]", "values": [{"measurement": "Impurity A", "setting": "[1]", "value": 0.00, "unit": "%"}, {"measurement": "Impurity B", "setting": "storage at 25° C., day 0", "value": 0.18, "unit": "%"}, {"measurement": "Impurity C", "setting": "storage at 25° C., day 0", "value": 0.00, "unit": "%"}, {"measurement": "Impurity A", "setting": "storage at 25° C., day 1.0", "value": 0.06, "unit": "%"}, {"measurement": "Impurity B", "setting": "storage at 25° C., day 1.0", "value": 0.36, "unit": "%"}, {"measurement": "Impurity C", "setting": "storage at 25° C., day 1.0", "value": 0.00, "unit": "%"}, {"measurement": "Impurity A", "setting": "storage at 25° C., day 1.9", "value": 0.08, "unit": "%"}, {"measurement": "Impurity B", "setting": "storage at 25° C., day 1.9", "value": 0.48, "unit": "%"}, {"measurement": "Impurity C", "setting": "storage at 25° C., day 1.9", "value": 0.00, "unit": "%"}, {"measurement": "Impurity A", "setting": "storage at 25° C., day 4.5", "value": 0.12, "unit": "%"}, {"measurement": "Impurity B", "setting": "storage at 25° C., day 4.5", "value": 0.67, "unit": "%"}, {"measurement": "Impurity C", "setting": "storage at 25° C., day 4.5", "value": 0.00, "unit": "%"}, {"measurement": "Impurity C", "setting": "storage at 25° C., day 8.8", "value": 0.00, "unit": "%"}, {"measurement": "Impurity C", "setting": "storage at 25° C., day 29.5", "value": 0.03, "unit": "%"}]}, {"smiles": "CCCCCC/C=C\\CCCCCCCCCC(=O)N[C@H]1[C@H](OC[C@H]2O[C@H](OP(=O)(O)O)[C@H](NC(=O)CC(=O)CCCCCCCCCCC)[C@@H](OCCCCCCCCCC)[C@@H]2O)O[C@H](COC)[C@@H](OP(=O)(O)O)[C@@H]1OCC[C@@H](CCCCCCC)OC", "note": "[Example 2]", "values": [{"measurement": "Impurity A", "setting": "[1]", "value": 0.00, "unit": "%"}, {"measurement": "Impurity B", "setting": "storage at 25° C., day 0", "value": 0.00, "unit": "%"}, {"measurement": "Impurity C", "setting": "storage at 25° C., day 0", "value": 0.00, "unit": "%"}, {"measurement": "Impurity A", "setting": "storage at 25° C., day 18", "value": 0.00, "unit": "%"}, {"measurement": "Impurity B", "setting": "storage at 25° C., day 18", "value": 0.00, "unit": "%"}, {"measurement": "Impurity C", "setting": "storage at 25° C., day 18", "value": 0.17, "unit": "%"}]}]}
